Literature values in patent US5786344A, “Camptothecin drug combinations and methods with reduced side effects” (priority 1995, dated 1998).
Entries after “also recorded” stand apart in the source; their conditions may differ. Where a name gives a salt, the structure may show the parent alone. Read-outs that look alike come from different tables or passages of the source.

Key:
p-glycoprotein = settings: cited from earlier work; for inhibition of photoaffinity labeling of p-glycoprotein: photolabeling
[1] = cited from earlier work; for plasma concentration: single dose 600 mg
[2] = test system: multidrug resistant (MDR) cells; settings: cited from earlier work
[3] = cited from earlier work
[4] = plasma/serum/terminal or elimination half-life
[5] = listed as Trifluoperazine, dihydrochloride

SMILES: C=C[C@@]1(C)CC(=O)[C@@H]2[C@@]3(C)CCCC(C)(C)[C@@H]3[C@H](O)[C@H](OC(C)=O)[C@@]2(C)O1 [1,9-dideoxyforskolina]
- inhibition of / interaction with p-glycoprotein (p-glycoprotein): p-glycoprotein inhibitors

SMILES: CCN1CCN(C(=O)N[C@@H](C(=O)N[C@@H]2C(=O)N3C(C(=O)O)=C(CSc4nnnn4C)CS[C@H]23)c2ccc(O)cc2)C(=O)C1=O [Cefoperazone]
- peak plasma concentration ([1]; human, in vivo, im): 80 to 120 µg/mL
- peak plasma concentration ([1]; human, in vivo, iv): 250 to 357 µg/mL
- biliary secretion ([1]; human, in vivo): 70%
- urinary excretion ([1]; human, in vivo): 30%
- oral absorption ([1]; oral): absorbed poorly

SMILES: CCN(CC)CCCC(C)Nc1ccnc2cc(Cl)ccc12 (centres unmarked) [Chloroquine phosphate, 1,4-Pentanediamine, N^4-(7-chloro-4-quinolinyl)-N^1, N^1-diethyl-, phosphate (1:2)]
- oral absorption ([1]; oral): absorbed almost completely

SMILES: CCN(CC)CCCC(C)Nc1ccnc2cc(Cl)ccc12 (centres unmarked) [Chloroquine]
- reversal of drug resistance [2]: partially reverses drug resistance

SMILES: CN(C)CCCN1c2ccccc2Sc2ccc(Cl)cc21 [Chlorpromazine hydrochloride, 10H-Phenothiazine-10-propanamine, 2-chloro-N,N-dimethyl-, mono hydrochloride]
- volume of distribution ([1]; human, in vivo, im): 21.8 L/kg
- bioavailability / dose reaching the systemic circulation ([1]; human, in vivo, po): 32%
- volume of distribution ([1]; human, in vivo, po): 80.6 L/kg

SMILES: O=C1CN=C(c2ccccc2Cl)c2cc([N+](=O)[O-])ccc2N1 [Clonazepam, 2H-1,4-Benzodiazepin-2-one, 5-(2-chlorophenyl)-1,3-dihydro-7-nitro-]
- therapeutic plasma levels ([1]; human, in vivo): 20 to 80 ng/mL

SMILES: OCCN(CCO)c1nc(N2CCCCC2)c2nc(N(CCO)CCO)nc(N3CCCCC3)c2n1 [Dipyridamole, [2,6-Bis(diethanolamino)-4,9-dipiperidinopyrimido-(5,4-d)pyrimidine]
- clinical toxicity ([3]; human, in vivo): quite nontoxic

SMILES: CCCCCCCCCC(=O)OCCN1CCN(CCCN2c3ccccc3Sc3ccc(C(F)(F)F)cc32)CC1 [Fluphenazine decanoate]
- duration of action ([3]; intramuscular or subcutaneous): about 4 wk

SMILES: CCCCCCC(=O)OCCN1CCN(CCCN2c3ccccc3Sc3ccc(C(F)(F)F)cc32)CC1 [Fluphenazine enanthate]
- duration of action ([3]; intramuscular or subcutaneous, listed as enanthate salt): 2 wk

SMILES: OCCN1CCN(CCCN2c3ccccc3Sc3ccc(C(F)(F)F)cc32)CC1 [Fluphenazine hydrochloride]
- oral absorption ([1]; oral): absorbed rapidly
- onset of action ([3]; human, in vivo): ≤ 1 h
- potency relative to chlorpromazine / other phenothiazines ([3]; human, in vivo): more potent
- duration of action ([3]; oral or intramuscular): 6 h

SMILES: Cc1ccc(C)c(OCCCC(C)(C)C(=O)O)c1 [Gemfibrozil]
- plasma concentration ([1]; after 2 hours): about 15 μg/ml
- plasma concentration ([1]; after 9 hours): ~5000 ng/mL
- potency relative to clofibrate ([3]; human, in vivo): more potent than clofibrate

SMILES: CCOC(=O)N(C)[C@@H]1C[C@H]2O[C@@](C)([C@@H]1OC)n1c3ccccc3c3c4c(c5c6ccccc6n2c5c31)C(=O)NC4=O [NA-382, N-ethoxycarbonyl-7-oxo-staurosporine]
- inhibition of / interaction with p-glycoprotein (p-glycoprotein): inhibiting drug binding to p-glycoprotein

SMILES: CCC1(c2ccccc2)C(=O)NC(=O)NC1=O [Phenobarbital, 2,4,6(1H,3H,5H)-Pyrimidinetrione, 5-ethyl-5-phenyl-]
- oral absorption ([1]; % of oral dose): Approximately 80%
- therapeutic plasma levels ([1]; human, in vivo): 10000 to 30000 ng/mL
- time to peak plasma level ([1]; human, plasma): 16 to 18 h

SMILES: O=C1NC(=O)C(c2ccccc2)(c2ccccc2)N1 [Phenytoin, 2,4-Imidazolidinedione, 5,5-diphenyl-]
- lethal plasma levels ([1]; human, in vivo): ~100 µg/mL

SMILES: C=CC1CN2CCC1CC2C(O)c1ccnc2ccc(OC)cc12 (centres unmarked) [Quinidine polygalacturonate]
- gastrointestinal side effects ([3]; human, in vivo): lesser incidence and severity of gastrointestinal side effects

SMILES: CO[C@H]1/C=C/O[C@@]2(C)Oc3c(C)c(O)c4c(O)c(c(/C=N/N5CCN(C)CC5)c(O)c4c3C2=O)NC(=O)/C(C)=C\C=C\[C@H](C)[C@H](O)[C@@H](C)[C@@H](O)[C@@H](C)[C@H](OC(C)=O)[C@@H]1C [Rifampin, Rifamycin, 3-[[(4-methyl-1-piperazinyl)imino]methyl]-]
- duration of effective levels ([1]; human, in vivo): 8 to 10 h

SMILES: CC(=O)O[C@@]12CO[C@@H]1C[C@H](O)[C@@]1(C)C(=O)[C@H](O)C3=C(C)[C@@H](OC(=O)[C@H](O)[C@@H](NC(=O)OC(C)(C)C)c4ccccc4)C[C@@](O)([C@@H](OC(=O)c4ccccc4)[C@H]21)C3(C)C [Taxotere]
- inhibition of / interaction with p-glycoprotein (p-glycoprotein): p-glycoprotein inhibitors

SMILES: C[C@@H]1C[C@H]2[C@@H]3CCC4=CC(=O)C=C[C@]4(C)C3=CC[C@]2(C)[C@H]1C(=O)CN1CCN(c2cc(N3CCCC3)nc(N3CCCC3)n2)CC1 [Tirilazad]
- inhibition of / interaction with p-glycoprotein (p-glycoprotein): potent inhibitors
- inhibition of photoaffinity labeling of p-glycoprotein (p-glycoprotein): more effectively than does verapamil
- sensitivity of nonresistant parental cells ([2]; nonresistant parental cells): does not change the sensitivity of nonresistant parental cells
- sensitization of resistant cells to killing by vinblastine ([2]; resistant cells): 66 fold

SMILES: CN(C)CCCN1c2ccccc2Sc2ccc(C(F)(F)F)cc21 [Triflupromazine hydrochloride, 1OH-Phenothiazine-10-propanamine, N,N-dimethyl-2-(trifluoromethyl)-monohydrochloride]
- potency relative to chlorpromazine / other phenothiazines ([3]; human, in vivo): somewhat more potent

SMILES: CS(=O)(=O)O.C[C@]12C=CC(=O)C=C1CC[C@@H]1C2=CC[C@]2(C)[C@@H](C(=O)CN3CCN(c4cc(N5CCCC5)nc(N5CCCC5)n4)CC3)CC[C@@H]12 [U-74389F]
- inhibition of / interaction with p-glycoprotein (p-glycoprotein): potent inhibitors

SMILES: COc1ccc(CCN(C)CCCC(C#N)(c2ccc(OC)c(OC)c2)C(C)C)cc1OC (stereo not drawn) [Verapamil hydrochloride, benzeneacetonitrile, α-[3-[[2-(3,4-dimethoxyphenyl)ethyl]-methylamino]propyl]-3,4-dime thoxy-a-(l-methylethyl)-, hydrochloride]
- excreted unchanged (urine) ([1]; % of dose): less than 5%
- fecal excretion ([1]; % of dose): 16%
- oral absorption ([1]; % of oral dose): more than 90%

SMILES: CC(C)(Oc1ccc(CCNC(=O)c2ccc(Cl)cc2)cc1)C(=O)O [bezafibrate]
- potency relative to clofibrate ([3]; human, in vivo): more potent than clofibrate

SMILES: COc1ccc2cc1Oc1ccc(cc1)C[C@H]1c3c(cc4c(c3Oc3cc5c(cc3OC)CCN(C)[C@@H]5C2)OCO4)CCN1C [cepharanthine]
- inhibition of photoaffinity labeling of p-glycoprotein (p-glycoprotein): showed inhibition

SMILES: CN(C)CCCN1c2ccccc2Sc2ccc(Cl)cc21 [chlorpromazine]
- inhibition of photoaffinity labeling of p-glycoprotein (p-glycoprotein): poor inhibitors
- reversal of drug resistance [2]: effectively reverse multidrug resistance

SMILES: CC(C)(Oc1ccc(C2CC2(Cl)Cl)cc1)C(=O)O (centres unmarked) [ciprofibrate]
- potency relative to clofibrate ([3]; human, in vivo): more potent than clofibrate

SMILES: OCCN1CCN(CC/C=C2/c3ccccc3Sc3ccc(C(F)(F)F)cc32)CC1 [cis-flupenthixol]
- reversal of drug resistance [2]: reversed cellular resistance to various drugs only in p-glycoprotein expressing cell lines

SMILES: C=C1[C@@H](C)[C@H]2[C@H](Cc3ccccc3)NC(=O)[C@]23OC(=O)/C=C/[C@H](O)CCC[C@@H](C)C/C=C/[C@H]3[C@@H]1O [cytochalasin B]
- inhibition of / interaction with p-glycoprotein (p-glycoprotein): inhibiting p-glycoprotein

SMILES: COc1cccc2c1C(=O)c1c(O)c3c(c(O)c1C2=O)C[C@@](O)(C(C)O)C[C@@H]3O[C@H]1C[C@H](N)[C@H](O)[C@H](C)O1 (some centres unmarked) [daunorubicinol]
- half-life [1, 4]: about 27 hr

SMILES: COc1cccc2c1C(=O)c1c(O)c3c(c(O)c1C2=O)C[C@@](O)(C(=O)CO)C[C@@H]3O[C@H]1C[C@H](N)[C@H](O)[C@H](C)O1 [doxorubicin, 5,12-Naphthacenedione, (8s-cis)-10-[(3-amino-2,3,6-trideoxy-α-L-lyxo-hexopyranosyl)oxy)-7,8,9,10-tetrahydro-6,8,11-trihydroxy-8-(hydroxyacetyl)-1-methoxy-hydrochloride]
- inhibition of / interaction with p-glycoprotein (p-glycoprotein): interacted with p-glycoprotein
- oral absorption ([1]; human, in vivo, po): absorbed poorly
- half-life [1, 4]: about 30 hr

SMILES: COc1cc([C@@H]2c3cc4c(cc3[C@@H](O[C@@H]3O[C@@H]5CO[C@@H](C)O[C@H]5[C@H](O)[C@H]3O)[C@H]3COC(=O)[C@H]23)OCO4)cc(OC)c1O [etoposide]
- inhibition of / interaction with p-glycoprotein (p-glycoprotein): interacted with p-glycoprotein
- peak plasma concentration ([1]; human, in vivo, iv): 30 µg/mL
- oral absorption ([1]; human, in vivo, po): about 50%
- concentration in CSF relative to plasma ([1]; human, in vivo): 1-10%
- excreted unchanged (urine) ([1]; human, in vivo): Approximately 40%
- half-life ([1]; human, in vivo): about 8 hours

SMILES: CC(C)OC(=O)C(C)(C)Oc1ccc(C(=O)c2ccc(Cl)cc2)cc1 [fenofibrate]
- potency relative to clofibrate ([3]; human, in vivo): more potent than clofibrate

SMILES: OCCN1CCN(CCCN2c3ccccc3Sc3ccc(C(F)(F)F)cc32)CC1 [fluphenazine]
- reversal of drug resistance [2]: reversed cellular resistance to various drugs only in p-glycoprotein expressing cell lines

SMILES: CC(=O)[C@H]1CC[C@H]2[C@@H]3CC=C4C[C@@H](O)CC[C@]4(C)[C@H]3CC[C@]12C [pregnenolone]
- inhibition of / interaction with p-glycoprotein (p-glycoprotein): inhibited the transporting activity of p-glycoprotein

SMILES: CC(=O)[C@H]1CC[C@H]2[C@@H]3CCC4=CC(=O)CC[C@]4(C)[C@H]3CC[C@]12C [progesterone]
- inhibition of / interaction with p-glycoprotein (p-glycoprotein): inhibited the transporting activity of p-glycoprotein; also recorded: inhibits their drug efflux

SMILES: COc1ccc(C[C@H](N)C(=O)N[C@H]2[C@@H](O)[C@H](n3cnc4c(N(C)C)ncnc43)O[C@@H]2CO)cc1 [puromycin]
- inhibition of / interaction with p-glycoprotein (p-glycoprotein): interacted with p-glycoprotein

SMILES: CN1CCN(CCCN2c3ccccc3Sc3ccc(C(F)(F)F)cc32)CC1 [trifluoperazine, 1OH-Phenothiazine, 10-[3-(4-methyl-1-piperazinyl)propyl]-2-(trifluoromethyl)-, dihydrochloride]
- inhibition of photoaffinity labeling of p-glycoprotein (p-glycoprotein; dihydrochloride): poor inhibitors
- inhibition of photoaffinity labeling of p-glycoprotein (p-glycoprotein; [5]): without inhibiting photoaffinity labeling
- reversal of drug resistance ([2]; dihydrochloride): effectively reverse multidrug resistance
- reversal of drug resistance [2, 5]: reverses multidrug resistance
